{"source": "patent US20210214683A1", "about": "“METHODS FOR ISOLATING TUMOR-SPECIFIC IMMUNE CELLS FROM A SUBJECT FOR ADOPTIVE CELL THERAPY AND CANCER VACCINES” (CRITITECH, INC., priority 2018, published 2021)", "key": {"[1]": {"test_system": "UM-UC-3 bladder cancer cell line", "assay": "Human bladder cancer (UM-UC-3) mouse xenograft study: tumor volume", "type": "in vivo, Hsd:Athymic Nude-Foxn1nu nude mice", "settings": "Docetaxel IV 30 mg/kg, 3 cycles", "method": "(§1) Tumor volume was determined with calipers. […] Animals were weighed 2×/week.\nAt day 18 after tumor implant, when average tumor size was between 50-325 mm^3, animals were sorted into five groups with equal average tumor sizes and were treated as shown in Table 25 below.\nThe second treatments (2nd cycle) occurred 7 days following first treatment (1st cycle) and third treatments (3rd cycle) occurred 14 days following the first treatment. The docetaxel solution IV was administered via the tail vein.\nVehicle (Control): Diluted 1 ml of the 1% Polysorbate 80/8% Ethanol in normal saline (0.9% Sodium Chloride for Injection) reconstitution solution with 1.5 mL of normal saline (0.9% Sodium Chloride for Injection, USP). […] Vigorously hand shook the vial with inversions for 1 minute. […] Allowed the suspension to sit undisturbed for at least 5 minutes to reduce entrapped air and foam. […] Vortexed to mix."}, "[2]": {"test_system": "immune cells in tumor tissue", "assay": "Renca syngeneic xenograft study: flow cytometry of tumor tissue", "type": "in vivo, female BALB/c mice", "settings": "IV docetaxel, individual animal", "method": "Organ Collection: Tumor (divide into 2 parts). […] Sent to laboratory for IHC staining. Part 2: preservation—processed to single cell suspension, shipping condition—4° C. (wet ice). Retained at CRL-NC for flow cytometry. See Flow panel in Table 40 below. Tumor preservation for early euthanasia in Groups 2-10: Excised tumor and surrounding area from the mammary fat pad area (cranial) to just past tumor (caudal). The region included the inguinal lymph node. Sectioned this sample every 4 mm from the cranial to caudal end and enclosed in separate cassettes labeled in order.\n(§2) Peripheral blood and tumor tissue were collected for analysis via flow cytometry. Cell types analyzed included T-Cells: CD4+, CD8+ (Tumor Suppression); Treg (Tumor Promotion); M1 Macrophages (Tumor Suppression); M2 Macrophages (Tumor Promotion); and M2 Macrophages (Tumor Promotion)."}, "Renca tumor cells [3]": {"test_system": "Renca tumor cells", "assay": "Renca syngeneic xenograft study: primary tumor volume (groups 1-7)", "type": "in vivo, female BALB/c mice", "settings": "IV docetaxel Day 1 (10 mg/kg) and Day 11 (5 mg/kg)", "method": "(§3) The schedule in Table 39 was followed.\nAll treatments were initiated on the same day.\n(§4) Cell Injection Volume: 0.1 mL/mouse. Age at Start Date: 8 to 12 weeks. […] Body Weight: 5/2 then tiwk to end. Caliper Measurement: tiwk to end. Double caliper measurements were performed for Groups 8-10. […] The group was not euthanized and recovery was allowed.\n(§5) Endpoints: Groups 1-7: Endpoint TGI. Animals were monitored as a group."}, "Renca tumor cells [4]": {"test_system": "Renca tumor cells", "assay": "Renca syngeneic xenograft study: untreated secondary tumor growth (groups 8-10)", "type": "in vivo, female BALB/c mice", "settings": "IV docetaxel; second Renca injection day 15", "method": "as §3, §4, §5"}, "[5]": {"assay": "UM-UC-3 mouse xenograft study: body weight and peripheral neuropathy", "type": "in vivo, Hsd:Athymic Nude-Foxn1nu nude mice", "settings": "Docetaxel IV 3 cycles", "method": "as §1"}, "[6]": {"test_system": "UM-UC-3 bladder cancer cell line", "assay": "UM-UC-3 mouse xenograft study: immunohistochemistry (F4/80, CD68 macrophage infiltrate, CD45R)", "type": "in vivo, Hsd:Athymic Nude-Foxn1nu nude mice", "settings": "IV Docetaxel 3 cycles"}, "[7]": {"test_system": "immune cells in the blood", "assay": "Renca syngeneic xenograft study: flow cytometry of blood (CD45+, CD4+, CD8+, Treg, MDSC, M1, M2)", "type": "in vivo, female BALB/c mice", "settings": "IV Docetaxel, individual animals", "method": "Blood Collection: Collected full volume blood by terminal cardiac puncture under isoflurane anesthesia. Processed blood for: Whole Blood: anti-coagulant—K2EDTA, preservation—Cooled 4° C., shipping condition—4° C. (wet ice). Retained at CRL-NC for flow cytometry. See Flow panel in Table 40 below.\nas §2"}, "[8]": {"test_system": "UM-UC-3 bladder cancer cell line", "assay": "UM-UC-3 mouse xenograft study: H&E histopathology (viable carcinoma size on slide, necrosis, TLS)", "type": "in vivo, Hsd:Athymic Nude-Foxn1nu nude mice"}, "[9]": {"test_system": "human renal cell adenocarcinoma (786-O cell line)", "assay": "Rat 786-O xenograft: H&E and immunohistochemical evaluation (viable carcinoma size, necrosis, CD11b/CD68 infiltrate, TLS)", "type": "in vivo, Sprague-Dawley Rag2; Il2rg null (SRG) rat", "description": "Tissue Collection: Primary Tumor (Inoculation site)—A final tumor measurement was taken prior to excision. Tumors were weighed after excision. Approximately ½ of each tumor (based on visual assessment) was flash frozen in 2-methylbutane on dry ice, the tumor piece was weighed when possible before it is flash frozen. The remaining was fixed in 10% neutral buffered formalin. Tumors were also collected from animals not reaching enrollment volume. Secondary Tumors—Any organ with visible tumors were collected and fixed in 10% neutral buffered formalin. Formalin fixed tissues were stored at room temperature. Frozen tissues were stored at −80° C. All tissue was stored for up to 3 months. Pictures of all tumors; primary and secondary if present, were taken.\nMicroscopic Examination: Tissues fixed with 10% NBF were embedded in paraffin. Each tumor was cut into 2-3 pieces and embedded and sectioned together."}, "[10]": {"settings": "IV Docetaxel 3 cycles, 2 animals"}}, "note": "Where “and” joins values, the source holds several entries; their conditions need not be identical. Equal entries are not always repeated. Marks after values point to notes of the source that are not given here."}
{"compound": "CC(=O)O[C@@]12CO[C@@H]1C[C@H](O)[C@@]1(C)C(=O)[C@H](O)C3=C(C)[C@@H](OC(=O)[C@H](O)[C@@H](NC(=O)OC(C)(C)C)c4ccccc4)C[C@@](O)([C@@H](OC(=O)c4ccccc4)[C@H]21)C3(C)C", "note": "[Docetaxel, docetaxel]", "values": [{"measurement": "efficacy in relation to initial tumor size", "setting": "[1]", "value": "somewhat effective at treating small tumors, but not very effective in treating large tumors"}, {"measurement": "tumor volumes over the study (61 days), after an initial decrease", "setting": "[1]", "value": "subsequently increased"}, {"measurement": "CD8 (% of CD45)", "setting": "[2]", "value": "0.75% and 0.5% and 0.28% and 0.31% (2×) and 0.061% and 0.32% and 0.45% and 0.81% and 0.33%"}, {"measurement": "CD8 Count", "setting": "[2]", "value": "33 and 40 and 26 and 9 and 36 and 270"}, {"measurement": "CD45 (% of Live)", "setting": "[2]", "value": 73, "unit": "%"}, {"measurement": "Conv CD4 (% of CD45)", "setting": "[2]", "value": "0.44% and 0.16% and 0.58% and 0.62% and 0.59%"}, {"measurement": "Conv CD4 Count", "setting": "[2]", "value": "54 and 93 and 140 and 23 and 50 and 670"}, {"measurement": "M1 Mac Count", "setting": "[2]", "value": "460 and 700"}, {"measurement": "M2 Mac (% of CD45)", "setting": "[2]", "value": 28, "unit": "%"}, {"measurement": "MBSC (% of CD45)", "setting": "[2]", "value": "25.1% and 32.8% and 42.5% and 44% and 83.3% and 20% and 70.4% and 37.3% and 10.4%"}, {"measurement": "Treg (% of CD45)", "setting": "[2]", "value": "0.55% and 0.32% and 0.62% and 0.16% and 0.54% and 0.21% and 0.42% and 0.6%"}, {"measurement": "Treg Count", "setting": "[2]", "value": "69 and 44 and 30 and 23 and 17 and 520"}, {"measurement": "tumor volume compared to vehicle", "setting": "Renca tumor cells [3]", "value": "No difference in tumor volume"}, {"measurement": "growth rate of the secondary Renca tumors", "setting": "Renca tumor cells [4]", "value": "did not reduce the growth rate of the secondary Renca tumors"}, {"measurement": "initial animal weight loss compared with nDoce IT 1, 2, 3 cycles", "setting": "[5]", "value": "generally greater"}, {"measurement": "peripheral neuropathy compared with nDoce IT 3 cycles", "setting": "[5]", "value": "greater signs of peripheral neuropathy"}, {"measurement": "F4/80 immunohistochemistry observation (FIG. 87)", "setting": "[6]", "value": "Very little tumor cell destruction and few scattered mononuclear immune cells among vast number of viable tumor cells"}, {"measurement": "Macrophage infiltrate density: Mild (animals)", "setting": "[6]; 2 animals, H&E and CD68", "value": 2}, {"measurement": "CD45 (% of Live)", "setting": "[7]", "value": "97 % of Live"}, {"measurement": "CD45 Count", "setting": "[7]", "value": 1200000}, {"measurement": "MDSC Count", "setting": "[7]", "value": 1000000}, {"measurement": "Treg Count", "setting": "[7]", "value": "1300 and 870"}, {"measurement": "General histological observations (H&E)", "setting": "[8]; Docetaxel Solution IV 3 cycles", "value": "many viable appearing tumor masses with some macrophage and occasional lymphocytic response along with some tumor necrosis"}, {"measurement": "Maximum size of viable invasive carcinoma on the slide >10 mm (animals)", "setting": "[8]; [10]", "value": "2*"}, {"measurement": "Number of animals with 11-50% of tumor showing necrosis", "setting": "[8]; [10]", "value": 1}, {"measurement": "Number of animals with 50-90% of tumor showing necrosis", "setting": "[8]; [10]", "value": 1}, {"measurement": "Maximum tumor size on slide (mm)", "setting": "[8]; IV Docetaxel 3 cycles, individual animals B1, B3", "value": "15 mm and 11 mm"}, {"measurement": "maximum dimension of tumor mass on the slide, individual cases", "setting": "[8]; Intravenous Docetaxel 3 cycles, 2 cases", "value": "11 mm and 15 mm"}, {"measurement": "geographic tumor cell necrosis, share of the tumor area, individual cases", "setting": "[8]; Intravenous Docetaxel 3 cycles, cases B1, B3", "value": "11-50% and 50-90%"}, {"measurement": "histology compared with the vehicle control (FIG. 93)", "setting": "[9]; Docetaxel (IV) 3 cycles, female rat", "value": "no difference"}, {"measurement": "Number of animals with residual viable carcinoma >10 mm", "setting": "[9]; IV docetaxel, 2 animals, maximum dimension on slide", "value": 2}, {"measurement": "residual viable carcinoma nodules, size on the slide", "setting": "[9]; both IV docetaxel animals (3 cycles)", "value": "greater than 10 mm"}]}
{"compound": "CC(=O)O[C@@]12CO[C@@H]1C[C@H](O)[C@@]1(C)C(=O)[C@H](O)C3=C(C)[C@@H](OC(=O)[C@H](O)[C@@H](NC(=O)OC(C)(C)C)c4ccccc4)C[C@@](O)([C@@H](OC(=O)c4ccccc4)[C@H]21)C3(C)C", "note": "[Doce]", "values": [{"measurement": "Number of animals with <5% of tissue showing necrosis", "setting": "[9]; IV Doce, 2 animals", "value": 2}, {"measurement": "Number of animals with Mild lymphohistiocytic infiltrate density", "setting": "[9]; IV Doce, 2 animals, H/E and CD11b staining, semi quantitative", "value": 2}]}
